Laboratory results: US7138361B2, “Herbicidal heterocycles” (E. I. du Pont de Nemours and Company, priority 2000, dated 2006)

How the values were obtained:
Type in all cases: in vivo
[1] = system: Nightshade; test: Test C preemergence
Source text: (§1) Seeds of plant species selected from bermudagrass (Cynodon dactylon), Surinam grass (Brachiaria decumbens), cocklebur (Xanthium strumarium), corn (Zea mays), crabgrass (Digitaria sanguinalis), woolly cupgrass (Eriochloa villosa), giant foxtail (Setaria faberii), goosegrass (Eleusine indica), johnsongrass (Sorghum halepense), kochia (Kochia scoparia), lambsquarters (Chenopodium album), morningglory (Ipomoea hederacea), yellow nutsedge (Cyperus esculentus), pigweed (Amaranthus retroflexus), common ragweed (Ambrosia elatior), soybean (Glycine max) and velvetleaf (Abutilon theophrasti) were planted and treated preemergence with test chemicals formulated in a non-phytotoxic solvent mixture which included a surfactant.
(§2) At the same time, plants selected from these crop and weed species and also winter barley (Hordeum vulgare), blackgrass (Alopecurus myosuroides), canary grass (Phalaris minor), chickweed (Stellaria media), downy brome (Bromus tectorum), green foxtail (Setaria viridis), Italian ryegrass (Lolium multiflorum), wheat (Triticum aestivum), wild oat (Avena fatua) and windgrass (Apera spica-venti) were treated with postemergence applications of some of the test chemicals formulated in the same manner. Plants ranged in height from 2 to 18 cm (1- to 4-leaf stage) for postemergence treatments. Plant species in the flooded paddy test consisted of rice (Oryza saliva), smallflower flatsedge (Cyperus difformis), duck salad (Heteranthera limosa) and barnyardgrass (Echinochloa crus-galli) grown to the 2-leaf stage for testing. Treated plants and controls were maintained in a greenhouse for 12 to 14 days, after which time all species were compared to controls and visually evaluated. Plant response ratings, summarized in Table C, are based on a scale of 0 to 100 where 0 is no effect and 100 is complete control. A dash (-) response means no test result.

[2] = system: Sunflower; test: Test C preemergence; conditions: Rate 62 g/ha; scale 0 to 100, 0 no effect, 100 complete control
Source text: as §1, §2

[3] = system: Surinam grass (Brachiaria decumbens); test: Test C preemergence
Source text: as §1, §2

[4] = system: bermudagrass (Cynodon dactylon); test: Test C preemergence
Source text: as §1, §2

[5] = system: cocklebur (Xanthium strumarium); test: Test C preemergence
Source text: as §1, §2

[6] = system: corn (Zea mays); test: Test C preemergence
Source text: as §1, §2

[7] = system: crabgrass (Digitaria sanguinalis); test: Test C preemergence
Source text: as §1, §2

[8] = system: giant foxtail (Setaria faberii); test: Test C preemergence
Source text: as §1, §2

[9] = system: goosegrass (Eleusine indica); test: Test C preemergence
Source text: as §1, §2

[10] = system: johnsongrass (Sorghum halepense); test: Test C preemergence
Source text: as §1, §2

[11] = system: kochia (Kochia scoparia); test: Test C preemergence
Source text: as §1, §2

[12] = system: lambsquarters (Chenopodium album); test: Test C preemergence
Source text: as §1, §2

[13] = system: morningglory (Ipomoea hederacea); test: Test C preemergence
Source text: as §1, §2

[14] = system: pigweed (Amaranthus retroflexus); test: Test C preemergence
Source text: as §1, §2

[15] = system: soybean (Glycine max); test: Test C preemergence
Source text: as §1, §2

[16] = system: velvetleaf (Abutilon theophrasti); test: Test C preemergence
Source text: as §1, §2

[17] = system: woolly cupgrass (Eriochloa villosa); test: Test C preemergence
Source text: as §1, §2

[18] = system: yellow nutsedge (Cyperus esculentus); test: Test C preemergence
Source text: as §1, §2

[19] = system: barnyardgrass (Echinochloa crus-galli); test: Test C flooded paddy test; conditions: for Barnyardgrass plant response rating: Flooded Paddy, scale 0 to 100, 0 no effect, 100 complete control; for Plant response rating, Barnyardgrass / Plant response rating (scale 0 to 100), Barnyardgrass: flooded paddy test; for Plant response rating, Barnyardgrass: scale 0 to 100 (0 no effect, 100 complete control)
Outline: (§3)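 Response on a 0-to-100 scale (no effect to complete control) was assessed by eye versus controls. Plants had reached 2 leaves when treated in flooded paddy conditions. The assessment took place after 12–14 days of greenhouse growth.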

[20] = system: rice (Oryza saliva); test: Test C flooded paddy test; conditions: for Rice plant response rating: Flooded Paddy, scale 0 to 100, 0 no effect, 100 complete control; for Plant response rating, Rice / Plant response rating (scale 0 to 100), Rice: flooded paddy test; for Plant response rating, Rice: scale 0 to 100 (0 no effect, 100 complete control)
Outline: as §3

[21] = Rate 62 g/ha, scale 0 to 100, 0 no effect, 100 complete control
[22] = Rate 125 g/ha, scale 0 to 100, 0 no effect, 100 complete control
[23] = preemergence, Rate 31 g/ha, scale 0 to 100
[24] = preemergence, Rate 125 g/ha, scale 0 to 100, 0 no effect, 100 complete control
[25] = Rate 16 g/ha, visually evaluated after 12 to 14 days, 0 = no effect, 100 = complete control
[26] = under head Rate 16 g/ha, (own rate not given), after 12 to 14 days

CCC(CC)c1ccn(C2SCN(c3cccc(C(F)(F)F)c3)C2=O)n1 (stereo not drawn) [Compound 21]
Plant response rating, Nightshade ([1]; Rate 31 g/ha, scale 0 to 100): 80
Plant response rating, Nightshade [1, 21]: 90
Plant response rating, Nightshade [1, 22]: 100
Plant response rating, Sunflower [2]: 60
Plant response rating, Surinam grass [3, 21]: 0
Plant response rating, Surinam grass [3, 23]: 0
Plant response rating, Surinam grass [3, 24]: 30
Plant response rating, Bermudagrass [4, 21]: 100
Plant response rating, Bermudagrass [4, 23]: 60
Plant response rating, Bermudagrass [4, 24]: 100
Plant response rating, Cocklebur [5, 21]: 0
Plant response rating, Cocklebur [5, 23]: 0
Plant response rating, Cocklebur [5, 24]: 0
Plant response rating, Corn [6, 21]: 20
Plant response rating, Corn [6, 23]: 20
Plant response rating, Corn [6, 24]: 20
Plant response rating, Crabgrass [7, 21]: 90
Plant response rating, Crabgrass [7, 23]: 90
Plant response rating, Crabgrass [7, 24]: 100
Plant response rating, Foxtail, Giant [8, 21]: 80
Plant response rating, Foxtail, Giant [8, 23]: 0
Plant response rating, Foxtail, Giant [8, 24]: 90
Plant response rating, Goosegrass [9, 21]: 80
Plant response rating, Goosegrass [9, 23]: 80
Plant response rating, Goosegrass [9, 24]: 100
Plant response rating, Johnsongrass [10, 21]: 70
Plant response rating, Johnsongrass [10, 23]: 30
Plant response rating, Johnsongrass [10, 24]: 90
Plant response rating, Kochia [11, 21]: 90
Plant response rating, Kochia [11, 23]: 90
Plant response rating, Kochia [11, 24]: 90
Plant response rating, Lambsquarters [12, 21]: 100
Plant response rating, Lambsquarters [12, 23]: 90
Plant response rating, Lambsquarters [12, 24]: 100
Plant response rating, Morningglory [13, 21]: 20
Plant response rating, Morningglory [13, 23]: 0
Plant response rating, Morningglory [13, 24]: 20
Plant response rating, Pigweed [14, 21]: 80
Plant response rating, Pigweed [14, 23]: 30
Plant response rating, Pigweed [14, 24]: 100
Plant response rating, Soybean [15, 21]: 40
Plant response rating, Soybean [15, 23]: 30
Plant response rating, Soybean [15, 24]: 80
Plant response rating, Velvetleaf [16, 21]: 0
Plant response rating, Velvetleaf [16, 23]: 0
Plant response rating, Velvetleaf [16, 24]: 0
Plant response rating, Cupgrass, Woolly [17, 21]: 80
Plant response rating, Cupgrass, Woolly [17, 23]: 40
Plant response rating, Cupgrass, Woolly [17, 24]: 80
Plant response rating, Nutsedge [18, 21]: 50
Plant response rating, Nutsedge [18, 23]: 20
Plant response rating, Nutsedge [18, 24]: 60
Barnyardgrass plant response rating ([19]; Rate 250 g/ha): 50
Barnyardgrass plant response rating ([19]; Rate 500 g/ha): 100
Plant response rating, Barnyardgrass ([19]; Rate 62 g/ha): 40
Plant response rating, Barnyardgrass ([19]; Rate 125 g/ha): 50
Rice plant response rating ([20]; Rate 250 g/ha): 70
Rice plant response rating ([20]; Rate 500 g/ha): 70
Plant response rating, Rice ([20]; Rate 62 g/ha): 0
Plant response rating, Rice ([20]; Rate 125 g/ha): 20

COc1cc(N2CCC(n3ccc(C(C)(C)C)n3)C2=O)ccc1C (stereo not drawn) [Compound 42]
Plant response rating, Nightshade ([1]; Rate 31 g/ha, scale 0 to 100): 0
Plant response rating, Nightshade [1, 21]: 0
Plant response rating, Nightshade [1, 22]: 100
Plant response rating, Surinam grass [3, 21]: 70
Plant response rating, Surinam grass [3, 23]: 0
Plant response rating, Surinam grass [3, 24]: 90
Plant response rating, Corn [6, 21]: 20
Plant response rating, Corn [6, 23]: 0
Plant response rating, Corn [6, 24]: 40
Plant response rating, Crabgrass [7, 21]: 90
Plant response rating, Crabgrass [7, 23]: 40
Plant response rating, Crabgrass [7, 24]: 100
Plant response rating, Foxtail, Giant [8, 21]: 50
Plant response rating, Foxtail, Giant [8, 23]: 30
Plant response rating, Foxtail, Giant [8, 24]: 100
Plant response rating, Kochia [11, 21]: 50
Plant response rating, Kochia [11, 23]: 20
Plant response rating, Kochia [11, 24]: 100
Plant response rating, Lambsquarters [12, 21]: 100
Plant response rating, Lambsquarters [12, 23]: 20
Plant response rating, Lambsquarters [12, 24]: 100
Plant response rating, Pigweed [14, 21]: 60
Plant response rating, Pigweed [14, 23]: 0
Plant response rating, Pigweed [14, 24]: 100
Plant response rating, Soybean [15, 21]: 50
Plant response rating, Soybean [15, 23]: 20
Plant response rating, Soybean [15, 24]: 50
Plant response rating, Cupgrass, Woolly [17, 21]: 20
Plant response rating, Cupgrass, Woolly [17, 23]: 0
Plant response rating, Cupgrass, Woolly [17, 24]: 100
Barnyardgrass plant response rating ([19]; Rate 250 g/ha): 100
Barnyardgrass plant response rating ([19]; Rate 500 g/ha): 100
Plant response rating, Barnyardgrass ([19]; Rate 62 g/ha): 100
Plant response rating, Barnyardgrass ([19]; Rate 125 g/ha): 100
Plant response rating (scale 0 to 100), Barnyardgrass [19, 25]: 70
Plant response rating (scale 0 to 100), Barnyardgrass [19, 26]: 50
Rice plant response rating ([20]; Rate 250 g/ha): 70
Rice plant response rating ([20]; Rate 500 g/ha): 80
Plant response rating, Rice ([20]; Rate 62 g/ha): 20
Plant response rating, Rice ([20]; Rate 125 g/ha): 40
Plant response rating (scale 0 to 100), Rice [20, 25]: 0
Plant response rating (scale 0 to 100), Rice [20, 26]: 0
